Measurements taken from US10266526B2, “Substituted 1,2,3-triazoles as SMYD inhibitors for treating cancer” (EPIZYME, INC., priority 2014, dated 2019).

The molecules below were run against SMYD3 (Homo sapiens (Human), UniProt Q9H7B4) (assay: SMYD3 biochemical assay (SMYD3 enzyme assay on MEKK2 protein substrate, 3H-SAM scintillation proximity assay)). Details: Table 1A; average of n = 1 to n = 50; read-out: SMYD3 Biochem IC50.
Method in brief: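 Detection used scintillation proximity beads to capture ³H-methylated GST-MEKK2 after quench with 100 uM final cold SAM. The reaction was started by SAM/MEKK2 addition after a 30 min RT compound–enzyme preincubation. Enzyme was tag-free full-length human SMYD3 from E. coli, in buffer of 25 mM Tris-Cl pH 8.0, 1 mM TCEP, 0.005% BSG, 0.005% Tween 20.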

Sequence of SMYD3 (Q9H7B4 whole entry): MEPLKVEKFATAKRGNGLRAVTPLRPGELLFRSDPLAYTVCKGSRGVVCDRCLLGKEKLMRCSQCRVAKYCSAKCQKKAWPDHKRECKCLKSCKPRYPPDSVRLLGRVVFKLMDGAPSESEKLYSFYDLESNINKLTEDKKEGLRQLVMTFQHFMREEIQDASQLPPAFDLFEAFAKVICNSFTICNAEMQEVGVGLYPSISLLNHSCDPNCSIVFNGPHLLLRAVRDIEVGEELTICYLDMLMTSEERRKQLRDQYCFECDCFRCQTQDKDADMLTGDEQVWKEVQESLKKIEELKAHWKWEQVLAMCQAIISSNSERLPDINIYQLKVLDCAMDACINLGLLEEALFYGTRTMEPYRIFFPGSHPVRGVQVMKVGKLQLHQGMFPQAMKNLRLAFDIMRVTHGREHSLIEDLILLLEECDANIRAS

IC50 [µM] | SMILES
9.76 | CC(NC(=O)c1n[nH]c(=O)[nH]1)C1CCN(C(=O)[C@H](C)N)CC1 (stereo partly drawn) [compound 546, N-(1-(1-(L-alanyl)piperidin-4-yl)ethyl)-5-oxo-4,5-dihydro-1H-1,2,4-triazole-3-carboxamide]
8.02 | CCc1cccc(C(=O)N[C@@H]2CCN(S(=O)(=O)CCCN)[C@H](C)C2)c1 (racemic) [compound 569, (±)-cis-N-(1-((3-aminopropyl)sulfonyl)-2-methylpiperidin-4-yl)-3-ethylbenzamide]

Same assay, conditions: read-out: SMYD3 Biochem IC50

SMILES | IC50 [µM]
NCCC(=O)N[C@H]1CC[C@H](NC(=O)c2cccc(N)n2)CC1 [compound 385, 6-amino-N-((1r,4r)-4-(3-aminopropanamido)cyclohexyl)picolinamide] | > 100
Cc1cc(C)c(C(=O)N[C@H]2CC[C@H](NC(=O)CCN)CC2)c(=O)[nH]1 [compound 402, N-((1r,4r)-4-(3-aminopropanamido)cyclohexyl)-4,6-dimethyl-2-oxo-1,2-dihydropyridine-3-carboxamide] | > 100
COc1cc(C(=O)N[C@H]2CC[C@H](N)CC2)c2ccccc2n1 [compound 223, N-((1r,4r)-4-aminocyclohexyl)-2-methoxyquinoline-4-carboxamide] | > 100
NCCC(=O)N[C@H]1CC[C@H](NC(=O)Cc2ccc3c(c2)CC(=O)N3)CC1 [compound 465, 3-amino-N-((1r,4r)-4-(2-(2-oxoindolin-5-yl)acetamido)cyclohexyl)propanamide] | 38.8
N[C@H]1CC[C@H](NC(=O)c2ccc(O)cn2)CC1 [compound 423, N-((1r,4r)-4-aminocyclohexyl)-5-hydroxypicolinamide] | > 100
N[C@H]1CC[C@H](NC(=O)c2nccc3ccccc23)CC1 [compound 197, N-((1r,4r)-4-aminocyclohexyl)isoquinoline-1-carboxamide] | > 100
Cn1ccnc1C(=O)N[C@H]1CC[C@H](NC(=O)CCN)CC1 [compound 412, N-((1r,4r)-4-(3-aminopropanamido)cyclohexyl)-1-methyl-1H-imidazole-2-carboxamide] | > 100
NCCC(=O)N[C@H]1CC[C@H](NC(=O)c2ccncc2F)CC1 [compound 390, N-((1r,4r)-4-(3-aminopropanamido)cyclohexyl)-3-fluoroisonicotinamide] | > 100
NCCC(=O)N[C@H]1CC[C@H](NC(=O)c2ccc3c(c2)CNC3=O)CC1 [compound 503, N-((1r,4r)-4-(3-aminopropanamido)cyclohexyl)-1-oxoisoindoline-5-carboxamide] | > 100

Further lines, results first:

IC50 [µM] | SMILES
6.57 | CC(NC(=O)c1cc2cn[nH]c2cn1)C1CCN(C(=O)[C@H](C)N)CC1 (stereo partly drawn) [compound 496, N-(1-(1-(L-alanyl)piperidin-4-yl)ethyl)-1H-pyrazolo[3,4-c]pyridine-5-carboxamide]
77.9 | CC(NC(=O)c1cc2cc(Cl)ccc2[nH]1)C1CCN(C(=O)[C@H](C)N)CC1 (stereo partly drawn) [compound 229, N-(1-(1-(L-alanyl)piperidin-4-yl)ethyl)-5-chloro-1H-indole-2-carboxamide]
15.2 | CC(NC(=O)c1ccc2nccc(N)c2c1)C1CCN(C(=O)[C@H](C)N)CC1 (stereo partly drawn) [compound 212, N-(1-(1-(L-alanyl)piperidin-4-yl)ethyl)-4-aminoquinoline-6-carboxamide]
> 100 | CC(NC(=O)c1ccc2cnn(C)c2c1)C1CCN(C(=O)[C@H](C)N)CC1 (stereo partly drawn) [compound 219, N-(1-(1-(L-alanyl)piperidin-4-yl)ethyl)-1-methyl-1H-indazole-6-carboxamide]
55.9 | CC(NC(=O)[C@@H]1C[C@H](F)CN1)C1CCN(C(=O)[C@H](C)N)CC1 (stereo partly drawn) [compound 305, (2S,4S)-N-(1-(1-(L-alanyl)piperidin-4-yl)ethyl)-4-fluoropyrrolidine-2-carboxamide]
61.6 | Cc1cncc(C(=O)NC(C)C2CCN(C(=O)[C@H](C)N)CC2)c1 (stereo partly drawn) [compound 256, N-(1-(1-(L-alanyl)piperidin-4-yl)ethyl)-5-methylnicotinamide]
> 100 | CC(NC(=O)c1ccc(O)nn1)C1CCN(C(=O)[C@H](C)N)CC1 (stereo partly drawn) [compound 191, N-(1-(1-(L-alanyl)piperidin-4-yl)ethyl)-6-hydroxypyridazine-3-carboxamide]
> 100 | Cc1c(C(=O)NC(C)C2CCN(C(=O)[C@H](C)N)CC2)nnn1-c1ccccc1 (stereo partly drawn) [compound 217, N-(1-(1-(L-alanyl)piperidin-4-yl)ethyl)-5-methyl-1-phenyl-1H-1,2,3-triazole-4-carboxamide]
> 100 | CC(NC(=O)c1ccc(-n2cncn2)cc1)C1CCN(C(=O)[C@H](C)N)CC1 (stereo partly drawn) [compound 472, N-(1-(1-(L-alanyl)piperidin-4-yl)ethyl)-4-(1H-1,2,4-triazol-1-yl)benzamide]
60 | CC(NC(=O)Cc1ccc2c(c1)CC(=O)N2)C1CCN(C(=O)[C@H](C)N)CC1 (stereo partly drawn) [compound 466, N-(1-(1-(L-alanyl)piperidin-4-yl)ethyl)-2-(2-oxoindolin-5-yl)acetamide]
> 100 | COc1ccc2cc(C(=O)NC(C)C3CCN(C(=O)[C@H](C)N)CC3)ccc2c1 (stereo partly drawn) [compound 220, N-(1-(1-(L-alanyl)piperidin-4-yl)ethyl)-6-methoxy-2-naphthamide]
> 100 | CC(NC(=O)c1cc[n+]([O-])cc1)C1CCN(C(=O)[C@H](C)N)CC1 (stereo partly drawn) [compound 209, 4-((1-(1-(L-alanyl)piperidin-4-yl)ethyl)carbamoyl)pyridine 1-oxide]
25.4 | CC1Oc2ccc(C(=O)NC(C)C3CCN(C(=O)[C@H](C)N)CC3)cc2NC1=O (stereo partly drawn) [compound 450, N-(1-(1-(L-alanyl)piperidin-4-yl)ethyl)-2-methyl-3-oxo-3,4-dihydro-2H-benzo[b][1,4]oxazine-6-carboxamide]
14.1 | CC(NC(=O)c1ccc2c(c1)C(=O)C(=O)N2)C1CCN(C(=O)[C@H](C)N)CC1 (stereo partly drawn) [compound 488, N-(1-(1-(L-alanyl)piperidin-4-yl)ethyl)-2,3-dioxoindoline-5-carboxamide]

Same assay, conditions: read-out: SMYD3 Biochem IC50 (μM)*

IC50 [µM] | SMILES
3.86 | C[C@H](N)C(=O)N1CCC(F)(CNC(=O)c2ccc3c(c2)CC(=O)N3)CC1 [compound 113, N-((1-(L-alanyl)-4-fluoropiperidin-4-yl)methyl)-2-oxoindoline-5-carboxamide]
56.7 | Cc1cc(C(=O)NC(c2ccccc2)C2CCNCC2)n(-c2ccccc2)n1 (centres unmarked) [compound 31, 3-methyl-1-phenyl-N-(phenyl(piperidin-4-yl)methyl)-1H-pyrazole-5-carboxamide]
46.6 | Cc1nc(-c2ccc(C(=O)N[C@H]3CC[C@H](N)CC3)cc2)no1 [compound 137, N-((1r,4r)-4-aminocyclohexyl)-4-(5-methyl-1,2,4-oxadiazol-3-yl)benzamide]
> 100 | CS(=O)(=O)c1cccc(C(=O)N[C@H]2CC[C@H](N)CC2)c1 [compound 151, N-((1r,4r)-4-aminocyclohexyl)-3-(methylsulfonyl)benzamide]
15.4 | N[C@H]1CC[C@H](NC(=O)c2cn(C3CC3)nn2)CC1 [compound 11, N-((1r,4r)-4-aminocyclohexyl)-1-cyclopropyl-1H-1,2,3-triazole-4-carboxamide]
> 100 | N[C@H]1CC[C@H](NC(=O)c2ccc3c(c2)OCO3)CC1 [compound 148, N-((1r,4r)-4-aminocyclohexyl)benzo[d][1,3]dioxole-5-carboxamide]
84.3 | CCC(=O)Nc1cccc(C(=O)N[C@H]2CC[C@H](N)CC2)c1 [compound 25, N-((1r,4r)-4-aminocyclohexyl)-3-propionamidobenzamide]
